Consider 8 substances from patent publication US9539300B2, “Modulating disease through genetic engineering of plants” (The Regents of the University of California, priority 2012, dated 2017).

A short description of series [1]: Identification and quantification of 6F in small intestine and plasma. Format: in vivo, mice. As for the experimental part: Female LDLR−/− mice 8-9 months of age (n=6) were fasted overnight and fed WD with transgenic 6F lyophilized tomato powder added to WD to provide 900 μg of 6F in 2 grams of diet. Over a period of 30-90 minutes, each mouse ate all of the 2 grams of diet. Approximately 2 hours after finishing the food the mice were bled and the small intestine was obtained (including contents), homogenized in acetonitrile:water (1:1), chromatographed by HPLC and subjected to SDS PAGE as described in Materials and Methods of Example 3. Plasma was lyophilized and resuspended in acetonitrile:water (1:1), chromatographed by HPLC and subjected to SDS PAGE as described in Materials and Methods of Example 3. […] The lanes were scanned for quantification as described in Materials and Methods of Example 3.
For analysis of the small intestine, 200 mg of small intestine (including contents) were homogenized in 10 mL of acetonitrile:water (1:1) and the homogenates were lyophilized and re-suspended in 400 μL of acetonitrile:water (1:1). […] Samples were run on HPLC using a C-18 Reverse Phase analytical column and a gradient solvent system of acetonitrile: water (30% to 80% in 20 min) in the presence of 0.1% TFA and monitored at 280 nm. […]
The data presented above indicate that the peptide in the transgenic 6F tomatoes is acting in the small intestine. […] No 6F peptide was detected in the plasma of any of the six mice. […]

Series [2] has as its system enzymes involved in the formation of LPA. Nature of the series: Microarray of gene expression in the small intestine. The conditions noted are these: Western Diet or chow, D-4F in drinking water. The class given is in vivo, mice. As for the experimental part:
To explore the mechanism of action, a microarray experiment to determine gene expression levels in the small intestine from mice fed the Western Diet or a chow diet and given or not given D-4F in their drinking water was performed. It was previously shown that D-4F administration reduces LPA levels similar to transgenic 6F tomatoes.

The subject of series [3] is LDL-induced monocyte chemoattractant protein-1 (MCP-1) production by cultured human artery wall cells. The following applies: cited from earlier work.
The test system of series [4] is apoE−/− mice made diabetic. The conditions noted are these: oral administration; cited from earlier work.
The test system of the next series is cholesterol-fed rabbits. The conditions noted are these: 10 mg/kg/day; cited from earlier work.
Series [5] concerns apolipoprotein (apo)E null mice. The following applies: cited from earlier work.
Series [6] has as its system LDLR−/− mice. The following applies: cited from earlier work.
The test system of series [7] is LDLR−/− mice. The following applies: cited from earlier work; for intact peptide in plasma after oral administration: mouse, in vivo; for inflammatory properties of HDL and LDL in a cell-based assay: single dose 5 mg/kg by stomach tube, four hours, 5 mg/kg.
The conditions of series [8]: in vivo; cited from earlier work.
Series [9] has as its system mice. The experiment in a line: 4F peptide without end groups in mice. Format: in vivo. From the text: The 4F peptide (Ac-D-W-F-K-A-F-Y-D-K-V-A-E-K-F-K-E-A-F-NH2, (SEQ ID NO:1)) has end blocking groups (Ac— and —NH2) that stabilize the class A amphipathic helix and dramatically increase efficacy (Venkatachalapathi et al. (1993) Proteins Structure Function Genet. 15: 349-359; Yancey et al. (1995) Biochemistry. 34: 7955-7965; Datta et al. (2001) J. Lipid Res. 42: 1096-1104; Anantharamaiah et al. (2007) J. Lipid Res., 48: 1915-1923). […] The required end (protecting) groups for 4F and for a number of other apoA-I mimetic peptides (Navab et al. (2010) Arterioscler. Thromb. Vasc. Biol. 30: 164-168) can only be added by chemical synthesis; living organisms cannot be engineered to make a molecule containing these end groups. Thus, the production of peptide for clinical use at these doses would not be practical because of the cost of producing this amount of peptide by solid phase synthesis.
Unfortunately, producing sufficient peptide to make therapy in humans practical was not likely because the 4F peptide requires end blocking groups that can only be added through chemical synthesis. […] This led us to seek alternative peptides synthesized from all L-amino acids that might be effective without end blocking groups.

The subject of series [10] is apoE−/− mice. The following applies: cited from earlier work.
In the next series the test system is human artery wall cells. The conditions noted are these: cited from earlier work; for inhibition of LDL-induced MCP-1 production by cultured human artery wall cells: Datta et al. (2001); for inhibiting monocyte chemotactic activity production by human artery wall cells exposed to human LDL: FIG. 1, adapted from Datta et al. (2001).
Series [11] has as its system mouse model of ovarian cancer. The following applies: cited from earlier work.
For series [12], the system named is mice. The conditions noted are these: mouse, in vivo; cited from earlier work.
Series [13] has as its system apoE−/− mice. The following applies: cited from earlier work. This is another data set of the same source.
Where [14] appears, read: doses of 4.5 and 45 mg/kg, oral or SQ.

Entries after “also recorded” stand apart in the source; their conditions may differ. Like-named read-outs stand apart in the source and are kept apart here. Square brackets hold non-standard residues; d marks the D form. Ends that are not written are not given here.

Turning to “DWLKAFYDKFFEKFKEFF [6F, D-W-L-K-A-F-Y-D-K-F-F-E-K-F-K-E-F-F]”, the “6F peptide in the plasma (not detected; lower limit of detection)” value in series [1] (~2 hours after eating 900 μg of 6F in transgenic 6F tomato powder) was below 100 ng/mL. The “intact 6F peptide in the small intestine (Mean±SD)” value in series [1] (~2 hours after eating 900 μg of 6F in transgenic 6F tomato powder in 2 grams of WD, n=6) is reported as 15.6±7.4 μg 6F per 200 mg small intestine.

As for “Ac-D-W-F-K-A-F-Y-D-K-V-A-E-K-F-K-E-A-F-NH2 [D-4F] (Ac-[dD][dW][dF][dK][dA][dF][dY][dD][dK][dV][dA][dE][dK][dF][dK][dE][dA][dF]-NH2)”, the “expression of enzymes involved in the formation of LPA” value in series [2] is given as “none of the enzymes involved in the formation of LPA changed their expression significantly”. Moreover, in [3] (oral doses of 0.43 and 1.43 mg/kg), the “HDL inflammatory index (HII)” value is given as “not effective”. Further, in series [3] (oral doses of 4.3 and 7.14 mg/kg), the “HDL inflammatory index (HII)” value is listed as “significantly improved”. Moreover, in series [4], the aortic atherosclerosis entry is reported as “significantly decreased”; the “hepatic content of free arachidonic acid and free oxidized fatty acids” value is recorded as “significantly decreased”; the “other plasma lipid or lipoprotein levels” value is reported as “without affecting”. Also, the “efficacy of L-4F and D-4F by injection” value with cholesterol-fed rabbits was “identical”. Moreover, the “reduction of aortic atherosclerosis” value in series [5] (45 mg/kg/day, Western diet, orally or SQ) is around 50%. In [5] (45 mg/kg/day, Western diet), the “plasma levels of SAA” value is “significantly reduced” and the “plasma levels of lysophosphatidic acid” value is given as “significantly reduced”. In [5] (doses of 0.15 or 0.45 mg/kg), the HDL inflammatory index result is “did not” and the “plasma serum amyloid A (SAA) levels” value is given as “did not”. For the same substance, in [5] (setting [14]), the HDL inflammatory index entry is “significantly reduced” and the “plasma serum amyloid A (SAA) levels” value is “significantly reduced”. The “changes in SAA, triglycerides, HDL-cholesterol and paroxonase activity induced by feeding 15-HETE in chow” value with LDLR−/− mice [6] (SQ D-4F, chow without WD) was “significantly ameliorated”. Also, in the series with LDLR−/− mice [6] (SQ or oral), the HDL-cholesterol result is recorded as “increased”, the “plasma SAA levels” value was “reduced” and the plasma triglyceride levels result was “reduced”. Moreover, in the series on LDLR−/− mice [6] (SQ or orally), the “levels of 20-HETE” value is recorded as “unchanged”; the “levels of free metabolites of arachidonic and linoleic acids in intestine, liver and hepatic bile” value is reported as “significantly reduced”. For the same substance, in the series on LDLR−/− mice [7], the “intact peptide in plasma after oral administration” value is given as “intact peptide identified”; the “inflammatory properties of HDL and LDL in a cell-based assay” value is “dramatically and significantly improved”. Also, in series [8], the “clearance from tissues, particularly liver and kidney” value is recorded as “delayed clearance”.

As for “Ac-D-W-F-K-A-F-Y-D-K-V-A-E-K-F-K-E-A-F-NH2 (Ac-DWFKAFYDKVAEKFKEAF-NH2) [4F]”, in the series on mice [9] (mice, without Ac- and -NH2 end groups, unpublished studies), the “fold less effective in vivo in the absence of the end groups” value is 25,000 fold. Besides, the “plasma levels of free oxidized fatty acids (5-HETE, 15-HETE, 9-HODE, 13-HODE)” value in the series on apoE−/− mice [10] (after administration of the 4F peptide) is “significantly decreased”. Also, in the series with apoE−/− mice [10] (mouse, in vivo), the “esterified oxidized fatty acid levels” value is “unchanged” and the “plasma levels of 20-HETE” value is on record as “did not decrease”. For the same substance, in the series on human artery wall cells, the “inhibition of LDL-induced MCP-1 production by cultured human artery wall cells” value (shortened to “inhibition”) is listed as “highly effective” and the “inhibiting monocyte chemotactic activity production by human artery wall cells exposed to human LDL” value was “indistinguishable”. For the same substance, in [11] (mouse, in vivo), the “number of tumor nodules” value was “reduction” and the tumor volume result is “significant reduction”.

“DWLKAFYDKVAEKLKEAF [2F, apoA-I mimetic peptide with phenylalanine at positions 6 and 18]”: the “inhibition” value with human artery wall cells is recorded as “not very effective”. Further, the “diet induced atherosclerosis in mice” value in the series with mice [12] is on record as “failed to decrease”.

“DWFKAFYDKVAEKFKEAF [4F peptide without end blocking groups, 4F peptide lacking the Ac- and -NH2 end groups]”: the “activity of the peptide without end blocking groups” value in the series on mice [9] (mouse models, data not shown) is on record as “dramatically reduced”.

“DWFKAFYDKFFEKFKEFF [7F, apoA-I mimetic peptide]”: the “inhibition” value in the series on human artery wall cells was “did not”.

“DWLKAFYDKVFEKFKEFF [5F, apoA-I mimetic peptide]”: in the series with human artery wall cells, the “inhibition” value was “able to efficiently inhibit” and the “inhibiting monocyte chemotactic activity production by human artery wall cells exposed to human LDL” value was “indistinguishable”. For the same substance, in the series on mice [12], the “diet induced atherosclerosis in mice” value was “inhibiting atherosclerosis” and the “tumor angiogenesis in mice” value is “inhibiting tumor angiogenesis”.

“Ac-D-W-F-K-A-F-Y-D-K-V-A-E-K-F-K-E-A-F-NH2 [L-4F] (Ac-DWFKAFYDKVAEKFKEAF-NH2)”: the “HDL inflammatory index (HII)” value in series [3] (0.042-1.43 mg/kg IV or SQ) is on record as “no improvement”. Moreover, the LPA levels entry in [11] (L-4F containing blocking groups, b323: in mouse chow, 100 mg/kg/day) is given as “significantly reduced; also recorded: significantly decreased”. Besides, the tumor burden result in series [11] (in mouse chow, 100 mg/kg/day) was “significantly decreased”. For the same substance, the aortic lesions entry in the series on apoE−/− mice [13] (L-4F administered with niclosamide) was “induced lesion regression”. Also, in the series with apoE−/− mice [13] (in chow 10 mg/kg/day for six months with low dose statin in drinking water), the aortic atherosclerosis entry is recorded as “did not significantly change”. The “efficacy of L-4F and D-4F by injection” value in the series on cholesterol-fed rabbits is “identical”. Moreover, in the series on LDLR−/− mice [7], the “intact peptide in plasma after oral administration” value is “virtually no intact peptide”; the “inflammatory properties of HDL and LDL in a cell-based assay” value is “not”. In series [8], the “clearance from tissues, particularly liver and kidney” value was “this was not the case”.
